Results as given in patent publication US20020103228A1, “Composition and method for use of pyridinium derivatives in cosmetic and therapeutic applications” (TORRENT PHARMACEUTICALS LTD., priority 1999, published 2002).

Key:
AGE-BSA = molecular target: T1, AGE-BSA (Bos taurus, UniProt P02769); experiment: In-vitro AGE breaking activity by ELISA; type: biochemical, Bovine; settings: 37° C., 24 hours
T1 construct: Bovine serum albumin (fraction V) (BSA); from tissue; host or cells: bovine serum (fraction V); glycated in house with 1.6 M glucose at 37 °C for 16 weeks
T1 sequence (P02769 25-607): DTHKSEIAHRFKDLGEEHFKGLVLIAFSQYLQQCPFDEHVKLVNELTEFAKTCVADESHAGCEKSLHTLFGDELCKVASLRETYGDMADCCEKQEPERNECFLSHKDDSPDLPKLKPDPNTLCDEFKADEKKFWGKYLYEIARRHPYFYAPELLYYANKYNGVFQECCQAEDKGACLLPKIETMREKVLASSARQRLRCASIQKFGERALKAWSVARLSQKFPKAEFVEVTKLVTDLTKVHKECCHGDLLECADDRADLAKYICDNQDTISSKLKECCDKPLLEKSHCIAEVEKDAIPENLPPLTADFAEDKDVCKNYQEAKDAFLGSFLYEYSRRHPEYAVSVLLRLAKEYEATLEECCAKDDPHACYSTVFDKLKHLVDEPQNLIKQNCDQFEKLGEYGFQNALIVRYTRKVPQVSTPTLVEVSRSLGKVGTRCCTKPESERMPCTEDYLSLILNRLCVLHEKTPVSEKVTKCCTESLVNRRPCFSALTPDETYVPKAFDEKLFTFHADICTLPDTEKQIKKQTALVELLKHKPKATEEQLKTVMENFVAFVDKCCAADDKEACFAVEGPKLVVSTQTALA
Protocol: AGE breaking activity has been confirmed by the screening procedure as mentioned below:
Methods of experiment: Elisa (Enzyme Linked Immunosorbent Assay)
160 mg/ml of protein, bovine serum albumin, BSA and 1.6M glucose sugar were dissolved in phosphate buffered saline, PBS. Sodium azide was added at 0.02% concentration as a preservative. The solution was filtered asceptically through a […] filter and kept for aging at 37° C. for 16 weeks. After 16 weeks the solution was dialyzed against PBS, aliquoted and stored at −20° C.
To determine the AGE breaking activity, 10 μg/ml of the 16 weeks AGE-BSA was incubated with different concentrations of the test compounds at 37° C. for 24 hours and AGE breaking activity of the test compounds by ELISA was determined.
ELISA was performed as follows
1. Different concentrations of 16 weeks AGE-BSA were coated on a microtiter plate as standard. Each concentration is coated in triplicates.
2. The test samples were coated on microtiter plate at a concentration of 5 ng to 20 ng per well in triplicates
3. The plate was incubated at 37° C. for one hour.
4. After incubation the plate was washed with PBST (PBS with 0.05% Tween 20).
5. Blocking with 5% skimmed milk in PBS at 37° C. for one hour was done.
6. The plate was washed with PBST.
7. Primary antibody against AGE-BSA was added and the plate is incubated at 37° C. for one hour.
8. The plate was washed with PBST
9. Secondary antibody anti rabbit HRPO (Horse-Radish Per Oxidase) conjugate was added and the plate is incubated at 37° C. for one hour.
10. The plate was washed with PBST.
11. Colour development with OPD (orthophenylenediamine dihydrochloride) and hydrogen peroxide was done.
12. OD (optical density) at (450 nm reading-620 nm reading) was measured after incubation at 37° C. for 15 minutes with Microplate ELISA Reader
The breaker activity of the compounds were determined by the following formula: [formula]
OD450-620Control=Absorbance of 20 ng AGE-BSA after incubation at 37° C. for 24 hours without test compound
OD450-620Test=Absorbance of 20 ng AGE-BSA after incubation at 37° C. for 24 hours with required concentration of test compound
Using specific examples, the % AGE breaking activity was calculated and recorded in Table 2.

[1] = Free radical scavenging activity on ABTS radical cation; type: biochemical
Protocol: This method measures the relative ability of free radical scavenging substances to scavenge the ABTS^.+ i.e. 2,2-Azino-bis-(3-ethyl benzo thiazoline-6-sulfonate) radical cation as compared to a standard amount of standard or free radical scavengers antioxidants. Incubation of ABTS with Peroxidase (metmyoglobin) and hydrogen peroxide results in the production of radical cation ABTS^.+. This species is blue-green in colour and can be detected at 730 nm. Antioxidants or free radical scavengers in the added sample that causes suppression of the color to a degree that is proportional to their concentration.
Preparation of Buffer Solutions
A. Phosphate Citrate Buffer (pH 5.0). 48.5 ml of 0.1M citric acid with sufficient 0.2M disodium hydrogen phosphate to produce 100 ml.
B. Phosphate Buffer Saline (PBS): Dissolve 40.0 g of NaCl, 1.0 g of KCl, 1.0 g of KH2PO4 and 3.05 g of Na2HPO4 in 1 liter milli-Q water. Dilute 200 ml of above solution to 1 liter with milli-Q water (pH 7.4-7.6).
C. 3 μM stock solution of Peroxidase was prepared in phosphate buffer saline pH 7.4(PBS).
D. 1.08 mM stock solution of Hydrogen peroxide was prepared in phosphate buffer saline pH 7.4 (PBS).
Preparation of ABTS Stock Solution
1 tablet (10 mg) was dissolved in phosphate citrate buffer (pH 5.0).
Preparation of ABTS Working Solution
5.0 ml of ABTS stock solution was diluted with PBS to 20 ml.
Preparation of Horse Radish Peroxidase Stock Solution
320 μg of the enzyme was dissolved in 2.5 ml of PBS.
Preparation of Hydrogen Peroxide (1.08 mM) Solution
12 μl of Hydrogen Peroxide (30% w/v) was diluted to 100 ml with PBS. […]
Preparation of ABTS Radical Stock Solution
To 18 ml of ABTS stock solution, 100 μl of Horseradish Peroxidase stock solution was added.
As soon as 1.5 ml of hydrogen peroxide solution was added to the above solution, blue-green colour of the ABTS radicals appeared. This solution was incubated at 30° C. for 30 min.
Preparation of Control Solution
980 μl of ABTS radical stock solution was added to an eppendorf tube. To it was added 100 μl of various PBS solution.
Preparation of test Solution
980 μl of ABTS radical stock solutions were added to different eppendorf tubes. To it were added 100 μl of various concentrations of drug solution.
Measurement of Absorbance (O.D)
The absorbance of control and test samples was recorded immediately at 730 nm taking PBS as blank.
Calculation: The percent antioxidant activity was calculated according to the formula. % Antioxidant activity=[O.D of test sample/O.D of control*100]−100.

| SMILES | % Breakage (AGE-BSA; 10 mM test compound) [%] | also measured |
| --- | --- | --- |
| CCOC(=O)C[n+]1cccc(C(=O)NNc2ccccn2)c1.[Br-] [Compound 4, 1-(2-ethoxy-2-oxoethyl)-3-(2-(2-pyridyl)hydrazinocarbonyl)pyridinium bromide] | 30 | Relative Free Radical Scavenging Activity (%) on ABTS ([1]; 11.5 μM): 58.2%; Relative Free Radical Scavenging Activity (%) on ABTS ([1]; 23.0 μM): 64.3%; Relative Free Radical Scavenging Activity (%) on ABTS ([1]; 46.0 μM): 69.3%; Relative Free Radical Scavenging Activity (%) on ABTS ([1]; 92.5 μM): 98.6%; Relative Free Radical Scavenging Activity (%) on ABTS ([1]; 925 μM): 100% |
| COCCOC(=O)c1ccc[n+](CC(=O)c2ccc(Cl)cc2Cl)c1.[Br-] [Compound 22, 1-(2-(2′,4′-dichlorophenyl)-2-oxoethyl)-3-(2(methoxy)ethyloxycarbonyl)pyridinium bromide] | 13 | % Breakage (AGE-BSA; 25 mM test compound): 41%; Relative Free Radical Scavenging Activity (%) on ABTS ([1]; 11.5 μM): 27.9%; Relative Free Radical Scavenging Activity (%) on ABTS ([1]; 23.0 μM): 50.9%; Relative Free Radical Scavenging Activity (%) on ABTS ([1]; 46.0 μM): 69.3%; Relative Free Radical Scavenging Activity (%) on ABTS ([1]; 92.5 μM): 79.7%; Relative Free Radical Scavenging Activity (%) on ABTS ([1]; 925 μM): 100% |
| O=C(NNC(=O)c1ccc[n+](CC(=O)c2ccco2)c1)c1ccc[n+](CC(=O)c2ccco2)c1.[Br-].[Br-] [Compound 32, N,N′-bis[3-carbonyl-1-(2-furan-2′-yl-2-oxoethyl)pyridinium]hydrazine dibromide] | 14 |  |
| COCCNC(=O)c1ccc[n+](CC(=O)NC2CC2)c1.[Cl-] [Compound 40, 1-(2-cyclopropylamino-2-oxoethyl)-3-(2-methoxyethylaminocarbonyl)-pyridinium chloride] | 12.38 |  |
| O=C(NNC(=O)c1cccnc1Cl)c1ccc[n+](CC(=O)c2cccs2)c1.[Cl-] [Compound 42, 1-(2-thien-2′yl-2-oxoethyl)-3-(2-(2-chloro-3-pyridoyl)hydrazinocarbonyl)-pyridinium chloride] | 12.51 |  |
| CC(C)NC(=O)C[n+]1cccc(C(=O)NNS(C)(=O)=O)c1.[Cl-] [Compound 43, 1-(2-isopropylamino-2-oxoethyl)-3-(2-methylsulfonylhydrazinocarbonyl)-pyridinium chloride] | 10.85 |  |
| COCCNC(=O)c1cc(Br)c[n+](CC(=O)c2cccs2)c1.[Cl-] [Compound 47, 1-(2-thien-2′-yl-2-oxoethyl)-3-((2-methoxyethyl)aminocarbonyl)-5-bromo pyridinium chloride] | 32.38 |  |
| Cc1ccc(C(=O)NNC(=O)c2ccc[n+](CC(=O)c3cccs3)c2)c[n+]1CC(=O)c1cccs1.[Cl-].[Cl-] [Compound 49, 1-[1-(2-thien-2′yl-2-oxoethyl)-6-methyl-3-carbonylpyridinium]-2-[1-(2-Thien-2′-yl-2-oxoethyl)-3-carbonylpyridinium]hydrazine dichloride] |  | % Breakage (AGE-BSA; 2.5 mM test compound): 85.67% |
| CCOC(=O)C1CCCN1C(=O)C[n+]1cccc(C(=O)NNS(C)(=O)=O)c1.[Cl-] (stereo not drawn) [Compound 52, 1-(2-(2-ethoxycarbonylpyrrolidin-1-yl)-2-oxoethyl)-3-(methanesulfonyl hydrazinocarbonyl)pyridinium chloride] | 25.34 |  |
| CS(=O)(=O)NNC(=O)c1cc(Br)c[n+](CC(=O)c2cccs2)c1.[Br-] [Compound 53, 1-(2-thien-2′-yl-2-oxoethyl)-3-(methanesulfonyl hydrazinocarbonyl)-5-bromo pyridinium bromide] |  | % Breakage (AGE-BSA; 2.5 mM test compound): 29.36% |
| Cc1ccc(C(=O)NNS(C)(=O)=O)c[n+]1CC(=O)c1cccs1.[Br-] [Compound 57, 1-(2-thien-2′-yl-2-oxoethyl)-3-(methanesulfonyl hydrazinocarbonyl)-6-methyl pyridinium bromide] |  | % Breakage (AGE-BSA; 1 mM test compound): 77.69% |
| Cc1ccc(C(=O)C[n+]2cccc(C(=O)NNC(=O)c3ccc[n+](CC(=O)c4ccc(C)s4)c3)c2)s1.[Cl-].[Cl-] [Compound 58, N,N′-bis[3-carbonyl-1-(2-(5-methylthien-2-yl)-2-oxoethyl)pyridinium]hydrazine dichloride] | 81.95 |  |
| CCOC(=O)C1CCCN1C(=O)C[n+]1cccc(C(=O)NNC(=O)c2ccc[n+](CC(=O)N3CCCC3C(=O)OCC)c2)c1.[Cl-].[Cl-] (stereo not drawn) [Compound 59, N,N′-bis[3-carbonyl-1-(2-(2-ethoxycarbonylpyrrolidin-1-yl)-2-oxoethyl)pyridinium]hydrazine dichloride] | 20.31 |  |
| CCOC(=O)C1CSCN1C(=O)C[n+]1cccc(C(=O)NNS(C)(=O)=O)c1.[Cl-] (stereo not drawn) [Compound 61, 1-(2-(4-carboethoxy-thiazolidin-3-yl)-2-oxoethyl)-3-(methanesulfonyl hydrazinocarbonyl)pyridinium chloride] | 25.06 |  |
| O=C(NNC(=O)c1ccc[n+](CC(=O)c2ccc(Cl)s2)c1)c1ccc[n+](CC(=O)c2ccc(Cl)s2)c1.[Cl-].[Cl-] [Compound 62, N,N′-bis[3-carbonyl-1-(2-(5-chlorothien-2-yl)-2-oxoethyl)pyridinium]hydrazine dichloride] | 78.41 |  |
| O=C(C[n+]1ccc(C(=O)NCCOC(=O)c2ccccc2)cc1)Nc1ccccc1.[Cl-] [Compound 66, 1-(2-phenylamino-2-oxoethyl)-4-[2-(benzoyloxy)ethylaminocarbonyl]pyridinium chloride] | 19.07 |  |
| NC(=O)c1ccc[n+](CC(=O)c2cccs2)c1.[Br-] [Compound 85, 3-Carbonylamino-1-(2-thien-2′-yl-2-oxoethyl)-pyridinium bromide] | 3 |  |
| CCOC(=O)C[n+]1cccc(C(=O)NCCO)c1.[Br-] [Compound 87, 1-(2-Ethoxy-2-oxoethyl)-3-((2-hydroxyethyl)aminocarbonyl)pyridinium bromide] | 43 |  |
| CCCCNC(=O)c1ccc[n+](CC(=O)Nc2ccccc2)c1.[Cl-] [Compound 94, 1-(2-Phenylamino-2-oxoethyl)-3-(n-butylaminocarbonyl)pyridinium chloride] | 27 |  |
| O=C(C[n+]1cccc(C(=O)NCCO)c1)Nc1ccccc1.[Cl-] [Compound 95, 1-(2-Phenylamino-2-oxoethyl)-3-((2-hydroxyethyl)aminocarbonyl)-pyridinium chloride] |  | % Breakage (AGE-BSA; 20 mM test compound): 48% |
| O=C(C[n+]1ccsc1)c1ccccc1.[Br-] [PTB, reference compound] | 27 | % Breakage (AGE-BSA; 20 mM test compound): 47% |
